From patent US9532956B2, “PH sensitive biodegradable polymeric particles for drug delivery” (Massachusetts Institute of Technology, priority 2009, dated 2017)

Test system: Red blood cells (RBCs)
Details: pH 7.4
Description: The red blood cells (RBCs) were separated from the whole blood or anticoagulant solution by centrifuging the whole blood at 800 rcf for 15 min. The supernatant was discarded and the RBCs were washed thrice with phosphate buffered saline (PBS). The stock of RBCs was prepared by mixing three volumes of the centrifuged RBCs with 11 parts of the phosphate buffered saline (PBS) with pH adjusted to 7.4, 6.5, or 5.4, and 100 μL of this stock was used for 1 ml of the sample. RBCs were mixed with Triton X-100 (1%, w/v) (positive control); with phosphate buffered saline (PBS) with pH adjusted to 7.4, 6.5, or 5.4 (negative control); and respective concentrations of amines, PLH and protamine at different pH (7.4, 6.5, or 5.4). Samples were incubated at 37° C. for 24 h on a tube shaker. The samples were centrifuged at 800 rcf for 15 min to separate intact RBCs. The supernatant was collected and kept for 30 min at room temperature to oxidize hemoglobin (Hb) and then the absorbance of Oxy-Hb was measured spectrophotometrically at 540 nm. The relative hemolysis efficiency was calculated as the percentage of released hemoglobin by the samples to that by Triton X-100. The percent hemolysis was calculated using the equation of a straight line, y=mx+c, where % hemolysis (x)=[optical density (y)−negative control optical density (c)]/[(positive control optical density−negative control optical density)/100] […]

| Compound | % hemolysis versus pH |
| --- | --- |
| N[C@@H](Cc1c[nH]cn1)C(=O)N[C@@H](Cc1c[nH]cn1)C(=O)N[C@@H](Cc1c[nH]cn1)C(=O)N[C@@H](Cc1c[nH]cn1)C(=O)N[C@@H](Cc1c[nH]cn1)C(=O)N[C@@H](Cc1c[nH]cn1)C(=O)O [PLH, poly-L-histidine (PLH, 6-mer)] | maximum hemolytic properties at endosomal pH 5.4 |
| protamine | more hemolytic properties at physiological pH 7.4 |
